Measured values published in patent US11447475B2, “Isoxazole N-linked carbamoyl cyclohexyl acids as LPA antagonists” (BRISTOL-MYERS SQUIBB COMPANY, priority 2017, dated 2022).
Like-named read-outs stand apart in the source and are kept apart here.

Experiments:
IPF patients = conditions: 26-week clinical trial in IPF patients; cited from earlier work
human LPA1 = target: T1, human LPA1 (Homo sapiens, UniProt Q92633); assay: LPA1 functional antagonist assay (calcium flux); type: cell-based; conditions: read-out: hLPA1 IC50
T1 construct: expressed in transfected cells; host or cells: Chinese hamster ovary (CHO) cells
T1 sequence (Q92633 whole entry): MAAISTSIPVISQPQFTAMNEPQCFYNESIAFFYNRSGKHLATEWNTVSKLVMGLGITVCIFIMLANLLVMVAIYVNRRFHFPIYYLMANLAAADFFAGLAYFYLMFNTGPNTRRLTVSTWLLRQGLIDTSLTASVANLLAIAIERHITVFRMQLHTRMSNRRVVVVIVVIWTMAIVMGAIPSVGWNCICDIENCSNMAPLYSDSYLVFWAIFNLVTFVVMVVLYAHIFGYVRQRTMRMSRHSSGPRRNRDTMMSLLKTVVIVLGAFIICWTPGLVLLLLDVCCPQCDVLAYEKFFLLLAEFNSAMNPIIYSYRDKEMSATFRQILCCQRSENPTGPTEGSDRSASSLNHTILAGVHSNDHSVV
Description: The effectiveness of compounds of the present invention as LPA1 inhibitors can be determined in an LPA1 functional antagonist assay as follows:
Chinese hamster ovary cells overexpressing human LPA1 were plated overnight (15,000 cells/well) in poly-D-lysine coated 384-well microplates (Greiner bio-one, Cat #781946) in DMEM/F12 medium (Gibco, Cat #11039). Following overnight culture, cells were loaded with calcium indicator dye (AAT Bioquest Inc, Cat #34601) for 30 minutes at 37° C. The cells were then equilibrated to room temperature for 30 minutes before the assay. Test compounds solubilized in DMSO were transferred to 384 well non-binding surface plates (Corning, Cat #3575) using the Labcyte Echo acoustic dispense and diluted with assay buffer [1×HBSS with calcium/magnesium (Gibco Cat #14025-092), 20 mM HEPES (Gibco Cat #15630-080) and 0.1% fatty acid free BSA (Sigma Cat #A9205)] to a final concentration of 0.5% DMSO. Diluted compounds were added to the cells by FDSS6000 (Hamamatsu) at final concentrations ranging from 0.08 nM to 5 μM. and were then incubated for 20 min at room temperature at which time LPA (Avanti Polar Lipids Cat #857130C) was added at final concentrations of 10 nM to stimulate the cells. […] IC50 values were determined by fitting data to a 4-parameter logistic equation (GraphPad Prism, San Diego Calif.).

nerve-injured mice = conditions: pretreatment; cited from earlier work
[1] = test system: human foetal lung fibroblasts; conditions: induced by BAL obtained from IPF patients; cited from earlier work
[2] = test system: pancreatic cancer cell lines; conditions: in response to LPA and peritoneal fluid (ascites) from pancreatic cancer patients; cited from earlier work
UUO mice = UUO mice treated with the antagonist, compared with LPA1 (−/−) mice; cited from earlier work
[3] = test system: highly peritoneal metastatic pancreatic cancer cell line; conditions: LPA-induced and ascites-induced; cited from earlier work
[4] = test system: mouse epithelial renal cell line, MCT; conditions: LPA treatment of MCT cells, co-treatment with antagonist; cited from earlier work
[5] = CHO cells overexpressing human LPA1, inhibition of calcium flux induced by 10 nM LPA

Structure (SMILES) | IC50 (human LPA1) [nM] | also measured
Cc1noc(-c2ccc(-c3ccc(C4(C(=O)O)CC4)cc3)cc2)c1NC(=O)O[C@H](C)c1ccccc1 [BMS-986020] | – | rate of FVC (forced vital capacity) decline (IPF patients): significantly reduce
Cc1nc(-c2onc(C)c2CNC(=O)OC(C)(C)C)ccc1O[C@H]1CCC[C@H](C(=O)O)C1 [Example 50, (1S,3S)-3-((6-(4-(((tert-butoxycarbonyl)amino)methyl)-3-methylisoxazol-5-yl)-2-methylpyridin-3-yl)oxy)cyclohexane-1-carboxylic Acid] | 44 | –
Cc1nc(-c2onc(C)c2CNS(=O)(=O)Cc2ccccc2)ccc1O[C@H]1CCC[C@H](C(=O)O)C1 [Example 51, (1S,3S)-3-((2-methyl-6-(3-methyl-4-(((phenylmethyl)sulfonamido)methyl) Isoxazol-5-yl)pyridin-3-yl)oxy)cyclohexane-1-carboxylic Acid] | – | IC50 (human LPA1; [5]): 620 nM
Cc1noc(-c2ccc(O[C@H]3CCC[C@H](C(=O)O)C3)cn2)c1CNS(=O)(=O)CCc1ccccc1 [Example 53, (1S,3S)-3-((6-(3-methyl-4-(((2-phenylethyl)sulfonamido)methyl)isoxazol-5-yl) Pyridin-3-yl)oxy)cyclohexane-1-carboxylic Acid] | – | IC50 (human LPA1; [5]): 4 nM
Cc1noc(-c2ccc(O[C@H]3CCC[C@H](C(=O)O)C3)cn2)c1CNC(=O)CCc1ccccc1 [Example 54, (1S,3S)-3-((6-(3-methyl-4-((3-phenylpropanamido)methyl)isoxazol-5-yl)pyridin-3-yl)oxy)cyclohexane-1-carboxylic Acid] | 255 | –
CCC[C@H](C)OC(=O)NCc1c(C)noc1-c1ccc(O[C@H]2CCC[C@H](C(=O)O)C2)cn1 [Example 55, (1S,3S)-3-((6-(3-methyl-4-((((((S)-pentan-2-yl)oxy)carbonyl)amino) Methyl) Isoxazol-5-yl)pyridin-3-yl)oxy)cyclohexane-1-carboxylic Acid] | 23 | –
CCC[C@@H](C)OC(=O)NCc1c(C)noc1-c1ccc(O[C@H]2CCC[C@H](C(=O)O)C2)cn1 [Example 58] | 37 | –
C[C@@H](N)[C@H]1CC[C@H](C(=O)Nc2ccncc2)CC1 [Example Y-27632] | – | allodynia and hyperalgesia (nerve-injured mice): completely abolished
Cc1noc(-c2ccc(CSCCC(=O)O)cc2)c1NC(=O)OC(C)c1ccccc1Cl (centres unmarked) [Ki16425] | – | chemotaxis of human foetal lung fibroblasts [1]: blocked; in vitro migration [2]: effectively blocked; development of renal fibrosis (UUO mice): closely resembled the profile of LPA1 (−/−) mice; invasion activity [3]: blocked; induction of CTGF expression [4]: almost completely suppressed

Further lines, with some results ahead:

IC50 (human LPA1) [nM] | Structure (SMILES) | also measured
11 | Cc1noc(-c2ccc(O[C@H]3CCC[C@H](C(=O)O)C3)cn2)c1CNC(=O)OC1CC(C)(C)C1 [Example 59] | –
33 | CCCCOC(=O)N(C)Cc1c(C)noc1-c1ccc(O[C@H]2CCC[C@H](C(=O)O)C2)cn1 [Example 60] | –
8 | CC[C@H](C)COC(=O)NCc1c(C)noc1-c1ccc(O[C@H]2CCC[C@H](C(=O)O)C2)cn1 [Example 61] | –
77 | Cc1noc(-c2ccc(O[C@H]3CCC[C@H](C(=O)O)C3)cn2)c1CNC(=O)OCCC1CC1 [Example 62] | –
16 | Cc1noc(-c2ccc(O[C@H]3CCC[C@H](C(=O)O)C3)cn2)c1CNC(=O)OCC1CC1(C)C (some centres unmarked) [Example 63] | –
14 | Cc1noc(-c2ccc(O[C@H]3CCC[C@H](C(=O)O)C3)cn2)c1CN(C)C(=O)OCc1ccccc1 [Example 64] | –
14 | CCCCOC(=O)NCc1c(C)noc1-c1ccc(O[C@H]2CCC[C@H](C(=O)O)C2)cn1 [Example 65] | –
